Data from ChEMBL document CHEMBL4725478, “Spiroindoline-Capped Selective HDAC6 Inhibitors: Design, Synthesis, Structural Analysis, and Biological Evaluation” (ACS Med Chem Lett, 2020).
Active and inactive are the calls of the source. The calls are words filed in the database; no cut-off is given here.

Experiments:
[1] = system: OE33; test: Antiproliferative activity against human OE33 cells assessed as reduction in cell viability measured after 72 hrs by MTT assay; format: functional, cell-based; conditions: OE33, 72 h
[2] = system: Ca9-22; test: Antiproliferative activity against human Ca9-22 cells assessed as reduction in cell viability measured after 48 hrs by alamar blue dye based spectrofluorometry; format: functional; conditions: Ca9-22, 48 h
[3] = organism: Homo sapiens; test: Selectivity ratio of IC50 for human recombinant HDAC8 expressed in Escherichia coli to IC50 full length N-terminal GST-tagged HDAC6 expressed in baculovirus expression system
[4] = Cytotoxicity against mouse NIH3T3 cells assessed as reduction in cell viability measured after 24 hrs by neutral red uptake assay; format: cell-based; conditions: read-out: TC50
[5] = Antiproliferative activity against human TR-146 cells assessed as reduction in cell viability measured after 48 hrs by alamar blue dye based spectrofluorometry; format: functional; conditions: TR146, 48 h
[6] = Mutagenicity in Salmonella typhimurium TA100 at 24 to 40 uM measured after 90 mins in presence of S9 fraction by Ames test; format: toxicity, subcellular; conditions: salmonella enterica subsp. enterica serovar typhimurium, s9, 1.5 h, dose 24-40 µM
[7] = system: KYSE-520 cell line; test: Antiproliferative activity against human KYSE520 cells assessed as reduction in cell viability measured after 48 hrs by alamar blue dye based spectrofluorometry; format: functional; conditions: KYSE-520, 48 h
[8] = Mutagenicity in Salmonella typhimurium TA98 at 8 to 160 uM measured after 90 mins in presence of S9 fraction by Ames test; format: toxicity, subcellular; conditions: salmonella enterica subsp. enterica serovar typhimurium, s9, 1.5 h, dose 8-160 µM
[9] = Mutagenicity in Salmonella typhimurium TA100 at 24 to 40 uM measured after 90 mins in absence of S9 fraction by Ames test; format: toxicity; conditions: salmonella enterica subsp. enterica serovar typhimurium, s9, 1.5 h, dose 24-40 µM
[10] = biological target: T1, Histone deacetylase 8 (Homo sapiens, UniProt Q9BY41); test: Inhibition of human recombinant HDAC8 expressed in Escherichia coli using Fluor de Lys substrate preincubated for 15 mins followed by substrate addition and measured after 60 mins by fluorescence assay
T1 sequence (Q9BY41 whole entry): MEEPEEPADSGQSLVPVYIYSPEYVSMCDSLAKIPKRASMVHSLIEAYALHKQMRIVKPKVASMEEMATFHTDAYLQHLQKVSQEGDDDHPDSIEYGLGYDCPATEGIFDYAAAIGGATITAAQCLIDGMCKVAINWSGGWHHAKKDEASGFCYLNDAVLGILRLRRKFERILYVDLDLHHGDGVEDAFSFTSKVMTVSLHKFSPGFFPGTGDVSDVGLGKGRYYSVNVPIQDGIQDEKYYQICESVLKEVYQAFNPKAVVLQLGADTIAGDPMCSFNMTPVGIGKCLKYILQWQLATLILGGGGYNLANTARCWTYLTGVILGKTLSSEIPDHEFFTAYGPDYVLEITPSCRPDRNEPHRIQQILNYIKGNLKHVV

[11] = biological target: T2, Histone deacetylase 1 (Homo sapiens, UniProt Q13547); test: Inhibition of full length C-terminal His/FLAG-tagged human HDAC1 expressed in baculovirus expression system using ZMAL as substrate incubated for 90 mins by fluorescence assay
[12] = Mutagenicity in Salmonella typhimurium TA98 at 8 to 160 uM measured after 90 mins in absence of S9 fraction by Ames test; format: toxicity; conditions: salmonella enterica subsp. enterica serovar typhimurium, s9, 1.5 h, dose 8-160 µM
[13] = biological target: T3, Protein deacetylase HDAC6 (Homo sapiens, UniProt Q9UBN7); test: Inhibition of full length N-terminal GST-tagged human HDAC6 expressed in baculovirus expression system using ZMAL as substrate incubated for 90 mins by fluorescence assay
T3 sequence (Q9UBN7 whole entry): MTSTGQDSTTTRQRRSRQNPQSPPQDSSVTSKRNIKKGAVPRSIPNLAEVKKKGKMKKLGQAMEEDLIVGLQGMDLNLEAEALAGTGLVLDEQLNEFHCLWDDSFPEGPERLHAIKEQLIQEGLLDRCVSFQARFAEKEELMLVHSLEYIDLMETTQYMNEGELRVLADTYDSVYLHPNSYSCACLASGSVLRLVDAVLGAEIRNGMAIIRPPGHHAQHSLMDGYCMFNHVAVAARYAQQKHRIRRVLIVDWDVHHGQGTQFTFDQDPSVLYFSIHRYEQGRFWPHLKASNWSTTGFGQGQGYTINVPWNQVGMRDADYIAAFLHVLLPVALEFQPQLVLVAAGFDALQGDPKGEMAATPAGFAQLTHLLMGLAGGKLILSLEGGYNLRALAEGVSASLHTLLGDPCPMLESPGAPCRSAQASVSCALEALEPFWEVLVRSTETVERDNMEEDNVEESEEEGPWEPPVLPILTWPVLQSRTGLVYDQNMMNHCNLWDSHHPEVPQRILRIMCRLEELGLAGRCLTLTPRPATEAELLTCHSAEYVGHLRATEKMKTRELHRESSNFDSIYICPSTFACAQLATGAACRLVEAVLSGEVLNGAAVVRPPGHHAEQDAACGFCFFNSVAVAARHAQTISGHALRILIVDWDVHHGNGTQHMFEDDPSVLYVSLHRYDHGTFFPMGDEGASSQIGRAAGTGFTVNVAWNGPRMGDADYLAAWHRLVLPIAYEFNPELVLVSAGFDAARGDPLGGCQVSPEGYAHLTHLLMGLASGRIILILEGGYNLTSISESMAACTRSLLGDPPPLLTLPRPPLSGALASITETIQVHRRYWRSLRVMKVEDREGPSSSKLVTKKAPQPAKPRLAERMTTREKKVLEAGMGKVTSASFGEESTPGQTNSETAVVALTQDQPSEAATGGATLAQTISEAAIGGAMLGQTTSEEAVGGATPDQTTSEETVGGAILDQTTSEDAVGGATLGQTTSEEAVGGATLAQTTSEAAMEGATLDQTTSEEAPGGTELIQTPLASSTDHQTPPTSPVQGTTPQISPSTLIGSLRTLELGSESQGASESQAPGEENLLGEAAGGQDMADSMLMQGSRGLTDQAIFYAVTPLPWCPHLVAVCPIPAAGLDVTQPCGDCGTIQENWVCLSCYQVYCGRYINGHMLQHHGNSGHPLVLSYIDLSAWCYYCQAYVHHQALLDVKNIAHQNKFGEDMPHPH

[14] = organism: Homo sapiens; test: Selectivity ratio of IC50 for full length C-terminal His/FLAG-tagged human HDAC1 expressed in baculovirus expression system to IC50 full length N-terminal GST-tagged human HDAC6 expressed in baculovirus expression system
[15] = biological target: T4, Protein deacetylase HDAC6 (Homo sapiens) (UniProt Q9UBN7); test: Inhibition of HDAC6 in human U-266 cells assessed as reduction in STAT3 phosphorylation at 25 uM measured after 4 to 48 hrs by immunoblot assay; format: cell-based; conditions: time hrs 4-48
T4 sequence (whole entry): T3 sequence (Q9UBN7 whole entry)

[16] = biological target: T4, Protein deacetylase HDAC6 (Homo sapiens); test: Inhibition of HDAC6 in human MEC1 cells assessed as reduction in STAT3 phosphorylation at 5 to 10 uM measured after 30 hrs by immunoblot assay; format: cell-based; conditions: dose microM 5-10, time 30.0 hrs
[17] = biological target: T2, Histone deacetylase 1; test: Inhibition of full length C-terminal His/FLAG-tagged human HDAC1 expressed in baculovirus expression system at 1 uM using ZMAL as substrate incubated for 90 mins by fluorescence assay relative to control
[18] = biological target: T4, Protein deacetylase HDAC6 (Homo sapiens); test: Inhibition of full length N-terminal GST-tagged human HDAC6 expressed in baculovirus expression system at 1 uM using ZMAL as substrate incubated for 90 mins by fluorescence assay relative to control
[19] = system: NB-4; test: Induction of apoptosis in human NB-4 cells assessed as increase in cleaved PARP expression at 10 uM measured after 24 to 48 hrs by Western blot analysis; format: functional, cell-based; conditions: time hrs 24-48
[20] = biological target: T4, Protein deacetylase HDAC6 (Homo sapiens); test: Inhibition of HDAC6 in human MEC1 cells assessed as reduction in STAT3 phosphorylation measured after 30 hrs by immunoblot assay; format: cell-based
[21] = system: U266B; test: Induction of apoptosis in human U266B cells at 25 to 50 uM measured after 48 hrs by Annexin-V/propidium iodide staining based flow cytometry; format: functional, cell-based; conditions: dose microM 25-50, time 48.0 hrs
[22] = system: U-937; test: Cell cycle arrest in human U-937 cells assessed as increase in accumulation at pre-G1 phase at 10 uM measured after 48 hrs by propidium iodide staining based flow cytometry; format: functional
[23] = system: Histone deacetylase; test: Inhibition of HDAC in human NB-4 cells assessed as effect on histone acetylation at 10 uM measured after 24 to 48 hrs by Western blot analysis; format: cell-based; conditions: nb-4, 10 µM, time 24-48 hrs
[24] = Antiproliferative activity against human U266B cells assessed as reduction in cell viability measured after 24 to 48 hrs by alamar blue dye based fluorescence assay; format: functional
[25] = biological target: T4, Protein deacetylase HDAC6 (Homo sapiens); test: Inhibition of HDAC6 in human U-266 cells assessed as reduction in STAT3 phosphorylation measured after 4 to 48 hrs by immunoblot assay; format: cell-based; conditions: time hrs 4-48
[26] = system: NB-4; test: Cell cycle arrest in human NB-4 cells at 5 to 10 uM measured after 48 hrs by propidium iodide staining based flow cytometry; format: functional; conditions: dose microM 5-10, time 48.0 hrs
[27] = biological target: T4, Protein deacetylase HDAC6 (Homo sapiens); test: Inhibition of HDAC6 in human NB-4 cells assessed as increase in tubulin acetylation at 10 uM measured after 24 to 48 hrs by Western blot analysis; format: cell-based; conditions: time hrs 24-48

T2 sequence (Q13547 whole entry): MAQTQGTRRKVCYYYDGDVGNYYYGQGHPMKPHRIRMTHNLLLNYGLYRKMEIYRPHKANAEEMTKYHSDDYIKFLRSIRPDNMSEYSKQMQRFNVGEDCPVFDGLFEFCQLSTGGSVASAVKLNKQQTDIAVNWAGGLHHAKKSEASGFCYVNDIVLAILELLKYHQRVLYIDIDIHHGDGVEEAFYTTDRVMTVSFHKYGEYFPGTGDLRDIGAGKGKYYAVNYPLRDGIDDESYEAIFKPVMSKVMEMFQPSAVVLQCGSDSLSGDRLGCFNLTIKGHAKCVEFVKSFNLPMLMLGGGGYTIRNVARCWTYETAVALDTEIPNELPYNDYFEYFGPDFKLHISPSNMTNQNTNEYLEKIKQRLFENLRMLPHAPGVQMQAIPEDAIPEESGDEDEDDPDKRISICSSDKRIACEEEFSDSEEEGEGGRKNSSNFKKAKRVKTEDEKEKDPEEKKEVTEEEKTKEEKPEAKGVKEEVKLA

| SMILES | IC50 [10] | IC50 [11] | IC50 [13] | Ratio IC50 [14] | IC50 [1] | IC50 [2] | CC50 at 24 h [4] | IC50 [5] | Activity [6] | Activity [9] | IC50 [24] | also measured |
| --- | --- | --- | --- | --- | --- | --- | --- | --- | --- | --- | --- | --- |
| CN1CC2(CCN(Cc3ccc(C(=O)NO)cc3)CC2)c2ccccc21 | 1.91 µM | 22.4 µM | 0.264 µM | 85 | 17.7 µM | > 1000 µM | 24 µM | > 1000 µM | Toxic | Toxic | – | Ratio IC50 [3]: 7; IC50 [7]: 197 µM; Activity [8]: Non-Toxic; Activity [12]: Non-Toxic; inhibition [15]: Active; inhibition [16]: Active |
| O=C(NO)c1ccc(CN2CCC3(CC2)CN(Cc2ccccc2)c2c(-c4ccccc4)cccc23)cc1 | – | – | – | – | – | – | – | – | – | – | – | inhibition [17]: 2.9%; inhibition [18]: 29.7% |

Now from value to molecule, other results behind:

| IC50 [10] | IC50 [11] | IC50 [13] | Ratio IC50 [14] | SMILES | IC50 [1] | IC50 [2] | CC50 at 24 h [4] | IC50 [5] | Activity [6] | Activity [9] | IC50 [24] | also measured |
| --- | --- | --- | --- | --- | --- | --- | --- | --- | --- | --- | --- | --- |
| – | 4.7 µM | 0.465 µM | 10 | O=C(NO)c1ccc(CN2CCC3(CC2)CN(C(=O)c2ccccc2)c2c(-c4ccccc4)cccc23)cc1 | – | – | – | – | – | – | – | – |
| 3.19 µM | 6.8 µM | 0.0485 µM | 140 | O=C(NO)c1ccc(COC(=O)N2CCC3(CC2)CN(Cc2ccccc2)c2ccccc23)cc1 | 37.8 µM | > 1000 µM | 40 µM | 133 µM | Toxic | Toxic | 20.2 µM | Activity [19]: Active; inhibition [20]: Dose-dependent effect; Activity [21]: Active; Activity [22]: Active; inhibition (INH) [23]: Not Active; inhibition [25]: Dose-dependent effect; Activity [26]: Active; inhibition [27]: Active |
| – | 10.1 µM | 0.155 µM | 65 | O=C(NO)c1ccc(CN2CCC3(CC2)CN(C(=O)c2ccccc2)c2ccccc23)cc1 | – | > 1000 µM | – | > 1000 µM | – | – | – | – |
| 2.48 µM | 3.6 µM | 0.11 µM | 33 | O=C(NO)c1ccc(CNC(=O)N2CCC3(CC2)CN(Cc2ccccc2)c2ccccc23)cc1 | – | 55 µM | – | > 1000 µM | – | – | 59.4 µM | – |
